Data reported in publication PMC12298815 (Pharmaceutics, 2025).
Like-named read-outs stand apart in the source and are kept apart here.

Tests used:
[1] = In vivo pharmacokinetics in rats; conditions: rat; for AUC(0-inf): read-out: AUCinf of DT; for AUC(0-t): read-out: AUClast of DT; for half-life: read-out: T1/2 of DT (converted)
Protocol: Pharmacokinetic parameters were calculated using a non-compartmental analysis model with WinNonlin® software version 5.3 (Pharsight Corp., Mountain View, CA, USA). All quantitative data are presented as mean ± standard deviation (SD) or standard error of the mean (SEM), as indicated. Statistical analyses were performed using one-way analysis of variance (ANOVA) to assess differences among groups, followed by Tukey’s post hoc test for multiple comparisons. A p-value less than 0.05 (p < 0.05) was considered statistically significant.

[2] = system: rat intestinal segments; experiment: In situ single-pass rat intestinal perfusion (Peff); format: in vivo, Sprague–Dawley rats; conditions: low-permeability reference, 100 µg/mL in perfusion buffer
Protocol: The in situ single-pass intestinal effective permeability (Peff) of AT/DT dispersed in 0.5% DMSO and AT/DT-NE#E was evaluated in rats. Sprague–Dawley rats were selected due to their well-characterized gastrointestinal physiology, suitability for serial perfusion sampling, and widespread use in oral absorption and permeability studies. Prior to the procedure, the rats were fasted for 12–16 h with free access to water. Anesthesia was induced via intramuscular injection of a tiletamine·HCl–zolazepam mixture (1:1, w/w; 40 mg/kg). With the animals in a supine position, a midline longitudinal incision was made to expose the abdominal cavity. […]
After a 30 min equilibration period to establish steady-state conditions, outlet perfusates were collected at 15 min intervals over a period of 120 min. […] It was perfused under identical conditions, and fluorescence was measured at excitation/emission wavelengths of 494/512 nm using a multimode microplate reader (PerkinElmer).
Body temperature was maintained throughout the experiment using heated pads and a heat lamp. At the end of the study, the length and radius of each perfused intestinal segment were carefully measured without stretching. […]
The outlet concentrations of AT and DT were quantified via HPLC as described previously. […]

| Cmax ([1]; plasma, IV, DT 5 mg/kg) [ng/mL] | AUC(0-inf) ([1]; plasma, IV, DT 5 mg/kg) [ng·h/mL] | AUC(0-t) ([1]; plasma, IV, DT 5 mg/kg) [ng·h/mL] | half-life ([1]; plasma, IV, DT 5 mg/kg) [h] | Tmax ([1]; plasma, oral, DT 10 mg/kg) [h] | bioavailability ([1]; plasma, oral, DT 10 mg/kg) [%] | AUC(0-inf) ([1]; plasma, oral, DT 10 mg/kg) [ng·h/mL] | AUC(0-t) ([1]; plasma, oral, DT 10 mg/kg) [ng·h/mL] | half-life ([1]; plasma, oral, DT 10 mg/kg) [h] | Cmax of DT ([1]; oral, DT 10 mg/kg) [ng/mL] | Peff [2] | Compound |
| --- | --- | --- | --- | --- | --- | --- | --- | --- | --- | --- | --- |
| 479 ± 45.3 | 4190 ± 264 | 1450 ± 109 | 8.33 ± 7.84 | 8 | 7.22 ± 0.924 | 264 ± 38.3 | 210 ± 26.8 | 8.67 ± 0.881 | 21.0 ± 5.17 | – | CC(=O)O[C@@]12CO[C@@H]1C[C@H](O)[C@@]1(C)C(=O)[C@H](O)C3=C(C)[C@@H](OC(=O)[C@H](O)[C@@H](NC(=O)OC(C)(C)C)c4ccccc4)C[C@@](O)([C@@H](OC(=O)c4ccccc4)[C@H]21)C3(C)C [DT, Docetaxel] |
| – | – | – | – | – | – | – | – | – | – | 0.001 ± 0.002 ×10^−4 cm/s | O=C1OC2(c3ccc(O)cc3Oc3cc(O)ccc32)c2ccccc21 [fluorescein] |
